Laboratory results published in patent publication US8236820B2, “Anti-inflammatory compounds and uses thereof” (priority 2007, dated 2012).

Experiments:
[1] = test system: colon cancer cells; experiment: Apoptosis (annexin V/PI), DFMO and phospho-sulindac I, 48 h; assay type: cell-based, human; conditions: 48 h of incubation; concentrations below IC50s
Method: (§1) A—Left panel: Cell viability was determined in HT-29 (full bars) and SW-480 (empty bars) cells after 48 h of incubation with 5 mM DFMO, 40 μM phospho-sulindac (P-S) or simultaneous combination of DFMO and P-S. Data are expressed as percentage of control cells (cells incubated only with DMSO). […] Right panel: In this isobologram the additivity line connects the IC50 value of each compound used alone. A and B represent two different dose pairs of each compound (their respective concentrations are shown in parentheses). The location of both A and B below the additivity line signifies synergy. […] DNA content was determined from propidium iodide (PI) fluorescence. C—Apoptosis and necrosis were determined by combined staining with annexin V and PI and determining fluorescence intensity. The percentages of apoptotic cells were determined using the dual staining with annexin V and propidium iodide and are indicated in each quadrant: left bottom quadrant, viable cells (annexin V-negative/PI-negative); right bottom quadrant, early apoptotic cells (annexin V-positive/PI-negative); right upper quadrant, late apoptotic cells (annexin V-positive/PI-positive); left upper quadrant, necrotic cells (annexin V-negative, PI-positive). […]

[2] = test system: SW480 and HT-29 human colon cancer cells; experiment: Cell kinetics of colon cancer cells treated with phospho-sulindac I; assay type: cell-based
Method: Cell proliferation assay: To determine cell proliferation, we measured the incorporation of 5-bromo-2′-deoxyuridine (BrdU) into newly synthesized cellular DNA, following the manufacture's instructions (BD Biosciences, San Jose, Calif.).
Annexin V and propidium iodide (PI) staining: Cells were seeded at a density of 1×10^5 cells/well and treated for 24 h with various concentrations of each compound or equivalent volumes of DMSO. Briefly, after incubation with the test compounds, cells were trypsinized and stained with Annexin V-FITC (Invitrogen) and PI (0.5 μg/ml). Following incubation at room temperature for 15 min in the dark, annexin V-FITC and PI fluorescence intensities were analyzed by FACScaliber (BD Bioscience). Annexin V (+)/PI (−) cells are in early apoptosis, annexin V (+)/PI (+) cells are in late apoptosis (secondary necrosis), and annexin V (−)/ PI (+) cells are necrotic cells.
Determination of cell cycle phase distribution (PI incorporation assay): Cells were seeded in culture plates and treated for 24 h with various concentrations of each compound or equivalent volumes of DMSO. After treatment, cells were trypsinized and fixed in 70% ethanol for 1 h on ice, stained with PI (50 μg/ml) and RNase A (4 U/ml) for 30 min and subjected to flow cytometric analysis for the determination of their distribution in the cell cycle phases.

[3] = test system: MCF-7; experiment: Cell viability (MTT) assay, 24-h IC50, MCF-7; assay type: cell-based, human; conditions: Homo sapiens, MCF7, 24 h, read-out: 24-h IC50
[4] = test system: SW480 colon cancer cells; experiment: Nude mice xenograft study; assay type: in vivo; conditions: 50 mg/kg/day gavage, 14 days
Method: Nude mice xenograft study: Female nude mice CByJ.Cg-Foxn1 (5-6 weeks-old) were inoculated subcutaneously in their lower right flank with 1.5×10^6 SW480 colon cancer cells in a volume of 100 μl (containing 50% matrigel in PBS). Seven days later, animals were randomized into two groups (8 mice/group): group 1 received vehicle (1% (w/v) carboxy methylcellulose); group 2 received 50 mg/kg/day phospho-sulindac I. All drugs were administered in a solution of 1% (w/v) carboxy methylcellulose by gavage once daily (phospho-sulindac I and sulindac concentrations are equimolar). Tumors were measured twice a week with a digital microcaliper, and tumor volume (TV) was calculated using the formula: TV=[L×W×(L+W/2)×0.56], where L=length and W=width of tumor. After 14 days of treatment, animals were sacrificed, and tumors were removed and weighed.

[5] = test system: SW480; experiment: DFMO / phospho-sulindac I synergy, cell growth at 48 h, SW480; assay type: cell-based, human; conditions: SW480, 48 h; DFMO 5 mM, phospho-sulindac I 40 μM
Method: as §1

[6] = test system: HT-29 cells; experiment: Cell cycle analysis, DFMO and phospho-sulindac I, 48 h; assay type: cell-based, human; conditions: DFMO 5 mM, phospho-sulindac I 40 μM
Method: as §1

[7] = test system: APC^Min/+ mice; experiment: APC Min/+ mice study of intestinal tumors; assay type: in vivo; conditions: 50 mg/kg/day gavage, 4 weeks
From the text: APC^Min/+ mice study: Min mice have a truncating mutation in the Apc gene that predisposes them to the development of gastrointestinal tumors in the small intestine and colon (Lipkin M, Yang K, Edelmann W, et al. Preclinical mouse models for cancer chemoprevention studies. Ann N Y Acad Sci 1999; 889:14-9.). In many important ways, this model system represents a useful (and extensively utilized) experimental system that recapitulates the relevant steps of colon carcinogenesis.
Eleven week-old male C57BL/6J APC^Min/+ mice divided into […] groups of 10 mice/group were treated for 4 weeks via gavage administration as follows: group 1 was treated with vehicle (corn oil); and group 2 was treated with phospho-sulindac I 50 mg/kg/day.

[8] = 24 h at its 24-h IC50, vs untreated controls

CCOP(=O)(OCC)OCCCCOC(=O)CC1=C(C)/C(=C/c2ccc([S+](C)[O-])cc2)c2ccc(F)cc21 (centres unmarked) [Phospho-sulindac I]
percentage of apoptotic cells [1]: 16.5%
effect on G1 to S cell cycle phase transition ([2]; 24 h at its 24-h IC50): blocked the transition form the G1 to the S cell cycle phase
induced apoptosis (early and late subtypes combined) [2, 8]: 201%
induced necrosis [2, 8]: 1350%
inhibited cell proliferation [2, 8]: 72%
necrosis in treated cells ([2]; 24 h at its 24-h IC50, controls 0.2%): 2.9%
apoptosis (early and late combined) in treated cells ([2]; 24 h at its 24-h IC50, controls 6.6%): 20%
cell proliferation in treated cells ([2]; 24 h at its 24-h IC50, controls 43%): 12%
IC50 [3]: 62 µM
tolerability in xenograft study [4]: no weight loss or other signs of toxicity were observed
mean tumor weight ([4]; mean±SEM, vehicle 0.246±0.041): 0.097±0.018
reduction in tumor weight ([4]; vs vehicle, p<0.05): 60%
reduction in cell number [5]: 45%
G1 population arrest [6]: 75%
S phase [6]: 13.6%
signs of toxicity in Min mice [7]: without any overt signs of toxicity
decreased the number of tumors in the small intestine ([7]; vs vehicle, p<0.002): 57.2%
reduction of tumors in the colon ([7]; vs vehicle, p<0.02): 61.8%
number of colon tumors ([7]; vehicle 1.6±0.8): 0.6±0.5
number of intestinal tumors ([7]; vehicle 33.6±8.7): 19.4±12.0
